In paper PMC10545747, “Development of cyclopeptide inhibitors of cGAS targeting protein-DNA interaction and phase separation” (Nature Communications, 2023):
Values joined by “and” are separate entries in the source; they are usually repeats but may differ in a detail not shown here. Equal entries are not always repeated. Square brackets hold non-standard residues; d marks the D form. Peptide text beside a SMILES is read from it.

Target: T1, recombinant human cGAS enzyme (hcGAS-ΔN, residues 147–522) (Homo sapiens, UniProt Q8N884)
T1 construct: N-terminally truncated human cGAS (hcGAS-ΔN, residues 147–522); 6xHis-SUMO (N, cleaved yes); made in house; host or cells: Escherichia coli BL21 (DE3)
T1 sequence (Q8N884 147-522, stated change not applied): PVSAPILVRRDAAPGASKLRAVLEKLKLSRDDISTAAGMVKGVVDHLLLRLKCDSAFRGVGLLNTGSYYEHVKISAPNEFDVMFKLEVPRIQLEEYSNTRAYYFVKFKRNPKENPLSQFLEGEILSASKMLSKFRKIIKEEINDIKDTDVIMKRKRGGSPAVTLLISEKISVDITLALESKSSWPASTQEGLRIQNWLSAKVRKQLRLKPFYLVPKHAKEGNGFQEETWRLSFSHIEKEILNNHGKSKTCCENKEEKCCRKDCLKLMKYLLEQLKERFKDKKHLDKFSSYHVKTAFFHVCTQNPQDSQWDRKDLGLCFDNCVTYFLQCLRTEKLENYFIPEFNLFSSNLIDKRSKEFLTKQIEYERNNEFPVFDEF
Assay: RNA-based fluorescent biosensor assay of cGAS activity (2',3'-cGAMP formation), in vitro screening
Format: biochemical
Settings: for inhibition at 20 µM / Inhibition %: peptides screened at 20 μM, Supplementary Table 1 / Fig. S5b; for inhibition at 20 µM: read-out: Inhibition %
How it was run: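 In 40 mM Tris-HCl pH 7.5, 100 mM NaCl, 10 mM MgCl2, ISD (0.5 μM) started the reaction with hcGAS-ΔN (1.5 μM), ATP (1 mM) and GTP (1 mM). Incubation was 2 h at 37 °C, with compounds screened at 20 μM. 2',3'-cGAMP formed was quantified with an RNA-based fluorescent biosensor.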

For CC(C)C[C@@H]1NC(=O)[C@H](CC(=O)O)NC(=O)[C@H](C(C)C)NC(=O)[C@@H]2CCCN2C(=O)[C@@H](Cc2ccccc2)NC(=O)[C@H](C)NC(=O)[C@H](CCCNC(=N)N)NC(=O)[C@H](C)NC(=O)[C@@H]2CCCN2C(=O)[C@@H](Cc2ccccc2)NC1=O [XQ58, Cyclo (AfPVDLfPAR)] (cyclo(ARA[dF]PVDL[dF]P)), the inhibition at 20 µM was 0%.

CC(C)C[C@@H]1NC(=O)[C@H](CC(=O)O)NC(=O)[C@H]([C@@H](C)O)NC(=O)[C@@H]2CCCN2C(=O)[C@@H](Cc2ccccc2)NC(=O)[C@H](CC(C)C)NC(=O)[C@H](CCCNC(=N)N)NC(=O)[C@H]([C@@H](C)O)NC(=O)[C@H](C)NC(=O)[C@@H](Cc2ccccc2)NC1=O [XQ59, Cyclo (LfPTDLfATR)] (cyclo(ATRL[dF]PTDL[dF])) showed an inhibition at 20 µM of 0%.

CC(C)C[C@@H]1NC(=O)[C@H](CC(=O)O)NC(=O)[C@H](C(C)C)NC(=O)[C@@H]2CCCN2C(=O)[C@@H](Cc2ccccc2)NC(=O)[C@H](CC(C)C)NC(=O)[C@H](CCCNC(=N)N)NC(=O)[C@H](C(C)C)NC(=O)[C@@H]2CCCN2C(=O)[C@@H](Cc2ccccc2)NC1=O [XQ60, Cyclo (LfPVDLfPVR)] (cyclo(DL[dF]PVRL[dF]PV)) gave an inhibition at 20 µM of 0%.

CC(C)C[C@@H]1NC(=O)[C@H](CCCNC(=N)N)NC(=O)[C@H](C(C)C)NC(=O)[C@@H]2CCCN2C(=O)[C@@H](Cc2ccccc2)NC(=O)[C@H](CC(C)C)NC(=O)[C@H]([C@@H](C)O)NC(=O)[C@@H]2CCCN2C(=O)[C@@H](Cc2ccccc2)NC(=O)[C@H](CC(=O)O)NC1=O [XQ63, Cyclo (LDfPTLfPVR)] (cyclo(D[dF]PTL[dF]PVRL)) gave an inhibition at 20 µM of 0%.

Work on CC(C)C[C@@H]1NC(=O)[C@H](CC(=O)O)NC(=O)[C@H](CCCNC(=N)N)NC(=O)[C@H](C(C)C)NC(=O)[C@@H]2CCCN2C(=O)[C@@H](Cc2ccccc2)NC(=O)[C@H](CC(C)C)NC(=O)[C@H]([C@@H](C)O)NC(=O)[C@@H]2CCCN2C(=O)[C@@H](Cc2ccccc2)NC1=O [XQ64, Cyclo (DLfPTLfPVR)] (cyclo(DL[dF]PTL[dF]PVR)) yielded an inhibition at 20 µM of 0%.

CC(C)C[C@@H]1NC(=O)[C@H](CCCNC(=N)N)NC(=O)[C@H](CC(=O)O)NC(=O)[C@H](C(C)C)NC(=O)[C@@H]2CCCN2C(=O)[C@@H](Cc2ccccc2)NC(=O)[C@H](CC(C)C)NC(=O)[C@H]([C@@H](C)O)NC(=O)[C@@H]2CCCN2C(=O)[C@@H](Cc2ccccc2)NC1=O [XQ65, Cyclo (LfPTLfPVDR)] (cyclo(DRL[dF]PTL[dF]PV)) gave an inhibition at 20 µM of 0%.

With CC(C)C[C@@H]1NC(=O)[C@H](CCCNC(=N)N)NC(=O)[C@H](C(C)C)NC(=O)[C@H](CC(=O)O)NC(=O)[C@@H]2CCCN2C(=O)[C@@H](Cc2ccccc2)NC(=O)[C@H](CC(C)C)NC(=O)[C@H]([C@@H](C)O)NC(=O)[C@@H]2CCCN2C(=O)[C@@H](Cc2ccccc2)NC1=O [XQ66, Cyclo (LfPTLfPDVR)] (cyclo(DVRL[dF]PTL[dF]P)) the inhibition at 20 µM was 0%.

CC(C)C[C@@H]1NC(=O)[C@H](CCCNC(=N)N)NC(=O)[C@H](C(C)C)NC(=O)[C@@H]2CCCN2C(=O)[C@@H](Cc2ccccc2)NC(=O)[C@H](Cc2c[nH]cn2)NC(=O)[C@H](CC(=O)O)NC(=O)[C@H]([C@@H](C)O)NC(=O)[C@@H]2CCCN2C(=O)[C@@H](Cc2ccccc2)NC1=O [XQ67, Cyclo (LfPTDHfPVR)] (cyclo(DH[dF]PVRL[dF]PT)) gave an inhibition at 20 µM of 0%.

CC(C)C[C@@H]1NC(=O)[C@H](CCCNC(=N)N)NC(=O)[C@H](C(C)C)NC(=O)[C@@H]2CCCN2C(=O)[C@@H](Cc2ccccc2)NC(=O)[C@H](CC(C)C)NC(=O)[C@H](CC(=O)O)NC(=O)[C@H](CCC(N)=O)NC(=O)[C@@H]2CCCN2C(=O)[C@@H](Cc2ccccc2)NC1=O [XQ68, Cyclo (LfPQDLfPVR)] (cyclo(DL[dF]PVRL[dF]PQ)) was tested, and the inhibition at 20 µM was 0%.

For CC(C)C[C@@H]1NC(=O)[C@H](CCCNC(=N)N)NC(=O)[C@H](C(C)C)NC(=O)[C@@H]2CCCN2C(=O)[C@@H](Cc2ccccc2)NC(=O)[C@H](CC(C)C)NC(=O)[C@H](CC(=O)O)NC(=O)[C@H](C(C)C)NC(=O)[C@H](CCCNC(=N)N)NC(=O)[C@@H](Cc2ccccc2)NC1=O [XQ76, Cyclo (LfRVDLfPVR)] (cyclo(DL[dF]PVRL[dF]RV)), the inhibition at 20 µM was 0%.

CC(C)C[C@@H]1NC(=O)[C@H](C)NC(=O)[C@H](C(C)C)NC(=O)[C@H](CCCNC(=N)N)NC(=O)[C@@H](Cc2ccccc2)NC(=O)[C@H](CC(C)C)NC(=O)[C@H](CC(=O)O)NC(=O)[C@H](C(C)C)NC(=O)[C@@H]2CCCN2C(=O)[C@@H](Cc2ccccc2)NC1=O [XQ77, Cyclo (LfPVDLfRVA)] (cyclo(AL[dF]PVDL[dF]RV)) showed an inhibition at 20 µM of 10%.

In the case of CC(C)C[C@@H]1NC(=O)[C@H](CC(=O)O)NC(=O)[C@H](C(C)C)NC(=O)[C@@H]2CCCN2C(=O)[C@@H](C)NC(=O)[C@H](C)NC(=O)[C@H](CCCNC(=N)N)NC(=O)[C@H](C(C)C)NC(=O)[C@@H]2CCCN2C(=O)[C@@H](Cc2ccccc2)NC1=O [XQ78, Cyclo (AaPVDLfPVR)] (cyclo(A[dA]PVDL[dF]PVR)), the inhibition at 20 µM is reported as 0%.

Work on CC(C)C[C@@H]1NC(=O)[C@H](CCCNC(=N)N)NC(=O)[C@H]([C@@H](C)O)NC(=O)[C@@H]2CCCN2C(=O)[C@@H](Cc2ccccc2)NC(=O)[C@H](C)NC(=O)[C@H](CC(=O)O)NC(=O)[C@H](C)NC(=O)[C@@H]2CCCN2C(=O)[C@@H](Cc2ccccc2)NC1=O [XQ79, Cyclo (LfPADAfPTR)] (cyclo(ADA[dF]PTRL[dF]P)) yielded an inhibition at 20 µM of 0%.

CCN(CC)CCCC(C)Nc1c2ccc(Cl)cc2nc2ccc(OC)cc12 (stereo not drawn) [quinacrine, reference compound] was tested, and the “cGAS activity in the biosensor assay” value was “inhibited the activity of cGAS in a dose-dependent manner”.

In the case of Cyclo ((hex)DLfPVR(hex)) [XQ69], the Inhibition % is reported as 0%.

For Cyclo (Aa(Hyp)TDLfPTR) [XQ85], the Inhibition % was 0%.

Cyclo (AaRTDLfPVR) [XQ89] was tested, and the Inhibition % was 0%.

Cyclo (AaRVDLfPVR) [XQ87] showed an Inhibition % of 0%.

With Cyclo (LaP(T(Bzl))RLaPTR) [XQ41] the “Remaining activity (%), Fig. 1a source data” value (20 μM, replicate values) was 101.101% and 103.439% and 102.283% and the Inhibition % was 0%.

Cyclo (Lf(Hyp)TDAfPTR) [XQ86] showed an Inhibition % of 0%.

Work on Cyclo (Lf(Hyp)TDAfPVR) [XQ88] yielded an Inhibition % of 7%.

Cyclo (LfPTDAfPVR) [XQ84] showed an Inhibition % of 0%.

With Cyclo (LfPTDLf(K(Alloc))VR) [XQ72] the Inhibition % was 0%.

Cyclo (LfPTDLf(Orn(Dde))VR) [XQ70] showed an Inhibition % of 0%.

Cyclo (LfPTDLfPVR) [XQ90] showed an Inhibition % of 5%.

Work on Cyclo (LfPVDAfPVR) [XQ81] yielded an Inhibition % of 0%.

Cyclo (LfRADAfPTR) [XQ80] showed an Inhibition % of 0%.

Cyclo (LfRADAfPVR) [XQ83] was tested, and the Inhibition % was 0%.

Cyclo (LfRVDAfPVR) [XQ82] gave an Inhibition % of 0%.

Cyclo (Lw(K(Dde))VDLf(K(Dde))VR) [XQ71] showed an Inhibition % of 0%.

With Cyclo (LwP(T(NMe))DLf(K(Dde))VR) [XQ61] the Inhibition % was 16%.

Compound Cyclo (LwPTD(Nle)f(K(Dde))VR) [XQ73] has an Inhibition % of 0%.

With Cyclo (LwPTDLf(K(Dde))(V(NMe))R) [XQ62] the Inhibition % was 0%.

For Cyclo (LwPVD(Nle)f(K(Dde))IR) [XQ75], the Inhibition % was 0%.

Cyclo (LwPVDLf(K(Dde))VR) [XQ74] showed an Inhibition % of 0%.
